Data published in patent publication US20260209325A1, “SELECTIVE AND POTENT INHIBITORY ANTIBODIES OF MYOSTATIN ACTIVATION” (SCHOLAR ROCK, INC., priority 2022, published 2026).
“And” between values parts separate entries of the source, which are not always exact repeats. Equal entries are not always repeated.

How the values were obtained:
[1] = type 2 diabetics, meta-analysis; cited from earlier work
[2] = high fat diet mice treated with metformin and antibody (Example 4); type: in vivo, mouse; settings: monotherapy, 45% high fat diet; FIG. 12A
Method: Male C57/BL6 mice were fed a 60% high fat diet beginning at six weeks of age. At nineteen weeks of age (day 0), the mice were switched to a 45% high fat diet for 63 days. […] These mice were further divided into groups that received either 50 mg/kg of metformin or no metformin (Table 22a).
Body weight and food intake were monitored three times per week throughout the study. On days 7, 35, 49, and 63, body composition was determined by qNMR, and glucose, ketones, and insulin were measured. At the end of the study on day 63, body composition was determined by qNMR; glucose, ketones, and insulin were measured, gastrocnemius muscle, whole liver, epididymal, and subcutaneous adipose tissue was collected and weighed.
Male C57/BL6 mice (n=8/group) were fed a 60% HFD until week 18, at which time they are switched to a 45% HFD for 7 days. At day 7, animals in group 3-6 were treated with 50 mg/kg/day metformin, given orally throughout the remainder of the study.
Body weight was measured three times per week; lean mass and fat mass were measured by qNMR on days 7, 35, 49, 63, and 77; serum glucose was also measured on days 7, 35, 49, 63, and 77; serum insulin was measured on days 49, 63, and 77. A glucose tolerance test (GTT) and an insulin tolerance test (ITT) was administered between day 56 and day 63.

[3] = biological target: latent myostatin (Homo sapiens, UniProt O14793); settings: in vivo; cited from earlier work
[4] = patients with SMA, Phase 2 (TOPAZ; NCT03921528); cited from earlier work
[5] = obese patients with type 2 diabetes; cited from earlier work
[6] = system: follicle stimulating hormone (FSH); settings: women; cited from earlier work
[7] = Ab109 with 0.01 or 0.04 mg/kg semaglutide in DIO mice (Example 9); type: in vivo, mouse; settings: for loss in perigonadal fat pad weight: FIG. 22A; for loss in inguinal fat pads: FIG. 22B; for loss in quadriceps weight: FIG. 21A
Method: Male C57/BL6 male mice (n=8/group) were placed on a 60% high fat diet at […] of age and maintained on the 60% high fat diet until 21 weeks of age (Groups 1-12), at which time the study began (day −7). On day −7, animals in groups 1-12 were switched to a 45% high fat diet and maintained on the 45% high fat diet until the animals were terminated. […] Body weight was measured three times per week and qNMR measurements of lean mass and fat mass were obtained pre-dose on day 0 and on days 7, 14 and 21. Fasting glucose was measured on day 18 after a 4 hour fast.
Animals in groups 3-12 were dosed with semaglutide daily for 3 weeks, then terminated. Animals in groups 1, 3, and 4 were treated with IgG control antibody, and those in groups 2, 5-12 were treated with myostatin activation inhibiting antibody treatment, for 3 weeks.
At termination, left gastrocnemius and quadriceps muscles were removed and frozen; the liver was weighed, one lobe was frozen; epididymal (perigonadal) adipose tissue was removed and weighed; inguinal (subcutaneous) adipose tissue was removed and weighed; and a terminal serum bleed was obtained.

[8] = system: leptin; assay: circulating leptin, U-PLEX Metabolic Hormones Combo 1 (Example 6); type: in vivo, mouse; settings: FIG. 14K
Method: Circulating leptin was measured using the U-PLEX Metabolic Hormones Combo 1 (mouse) according to manufacturer's instructions (Meso Scale Diagnostics, #K15306K-2). As expected, circulating leptin was higher in animals fed the high fat diet than animals fed a standard chow.

[9] = Wilding et al. 2022; cited from earlier work
[10] = semaglutide plus Ab109 in DIO mice incl. semaglutide withdrawal (Example 6); type: in vivo, mouse
Method: Male C57/BL6 male mice (n=8/group) were either fed regular mouse chow (Group 1) or placed on a 60% high fat diet at six weeks of age and maintained on the 60% high fat diet until 21 weeks of age (Groups 2-8), at which time the study began (day 0). On day 0, animals in groups 2-8 were switched to a 45% high fat diet and maintained on the 45% high fat diet until the animals were terminated. […] Body weight was measured three times per week and qNMR measurements of lean mass and fat mass were obtained on the days set forth.
Animals in groups 3 and 4 were dosed with semaglutide weekly for 14 days, then terminated. Animals in groups 5 and 6 (weight regain groups), were treated with semaglutide for 35 days, then the semaglutide treatment was ended while the myostatin activation inhibiting antibody treatment continued until the animals were terminated on day 63. The animals in Groups 7 and 8 were treated with semaglutide for 63 days, i.e., they remained on semaglutide until the study terminated on day 63.
At termination, left and right gastrocnemius muscles were removed and frozen; the liver was weighed, one lobe was fixed, and the remainder was frozen; epididymal adipose tissue was removed and weighed; subcutaneous adipose tissue was removed and weighed; and a terminal serum bleed was obtained.

Compound: CN(C)C(=N)N=C(N)N [metformin, reference compound]
- effect on weight loss [1]: no effect on weight loss
- fat mass gain [2]: Neither metformin alone nor Ab109 alone showed this effect

Compound: apitegromab: selective myostatin inhibitor antibody that targets pro/latent myostatin and inhibits its activation
- circulating latent myostatin in treated subjects [3]: elevated levels of circulating latent myostatin
- efficacy and safety [4]: shown efficacy and safety

Compound: bimagrumab: an anti-ActRIIB antibody
- total body fat mass and lean mass [5]: reduce total body fat mass and increase lean mass
- follicle stimulating hormone (FSH) [6]: significantly reduce follicle stimulating hormone (FSH)

Compound: semaglutide [reference compound]
- loss in lean mass ([7]; 0.01 mg/kg semaglutide, FIG. 20B): 4.7%
- loss of lean mass ([7]; 0.04 mg/kg semaglutide and hIgG, 3 weeks, FIG. 20A): about 9.5%
- body weight ([7]; 45% high fat diet, semaglutide 0.01 or 0.04 mg/kg daily, 3 weeks, FIGS. 18A-B): lost weight
- loss in perigonadal fat pad weight ([7]; semaglutide 0.01 mg/kg): −19.1%
- loss in inguinal fat pads ([7]; semaglutide 0.01 mg/kg): −21.4%
- fat mass loss ([7]; semaglutide 0.04 mg/kg alone or with Ab109, FIG. 19A, 19C): induced fat mass loss
- loss in perigonadal fat pad weight ([7]; semaglutide 0.04 mg/kg): −45.5%
- loss in inguinal fat pads ([7]; semaglutide 0.04 mg/kg): −47.4%
- loss in gastrocnemius muscle weight ([7]; semaglutide 0.01 and 0.04 mg/kg, dose of each value not stated, FIG. 21B): −16.9% and −20.3%
- loss in quadriceps weight ([7]; semaglutide high dose (0.04 mg/kg)): −7.6%
- loss in quadriceps weight ([7]; semaglutide low dose (0.01 mg/kg)): −4.8%
- circulating leptin [8]: lowered circulating leptin
- regain of prior weight loss one year after discontinuing treatment [9]: regained two-thirds of their prior weight loss
- body weight ([10]; 45% high fat diet, semaglutide 0.04 mg/kg with hIgG or Ab109, incl. regain after withdrawal, FIG. 14A): lost weight
- loss of lean mass while on semaglutide ([10]; semaglutide and hIgG): about 4%
- net loss of lean mass at the end of the study ([10]; semaglutide and hIgG, after semaglutide was stopped): 2.5%
- fat mass ([10]; semaglutide, and regain after withdrawal with Ab109 or control IgG, FIG. 14D): induced fat mass loss
